Experimental data: patent publication US10195218B2, “Crystallization method and bioavailability” (GRUNENTHAL GMBH, priority 2016, dated 2019)
Like-named read-outs stand apart in the source and are kept apart here.

What was measured:
[1] = Aqueous solubility at room temperature; type: physicochemical; conditions: water
[2] = cited from earlier work
[3] = Dog PK study: serum concentrations of zoledronic acid after IV or oral (gelatin capsule, enteric or non-enteric coated, with or without excess coformer, micronized) dosing, LC/MS/MS; type: in vivo; conditions: beagle, Leg 1, IV 0.05 mg/kg, saline solution, time 0 hour (pre-dose), read-out: Average serum concentration of 5 dogs
Experimental: Surgical catheters (jugular vein and intraduodenum) were implanted to the animals prior to the study. Beagle dogs from Marshall Farms, N.Y., USA, weighing from (9-12 kg) were used in this study. Surgical catheters (jugular vein) were implanted prior to the study.
IV Administration: The dose volume of each dog was adjusted based upon the average weight of the dog. • ii.
Prior to dosing, all dogs received a 20 mL dose of citric acid (24 mg/mL in water) to lower the pH of their stomach. After dosing capsules or IV, all dogs received additional 6.25 mL citric acid solution (24 mg/mL in water) as a rinse.
Group A, (IV administration). Group members, designated IV doses are listed below:
Group B (oral administration): Group designations and oral doses are listed below:
Group C (oral administration): Group designations and oral doses are listed below:
Group D, (15 min IV infusion): Group members, designated IV doses are listed below:
Group E, (oral administration): Group members, designated IV doses are listed below:
Group F, (15 min IV infusion): Group members, designated IV doses are listed below: […]

[4] = cited from earlier work; remark: listed apart in the source
[5] = Rat PK study: plasma concentrations of zoledronic acid after IV, oral gavage or intraduodenal (ID) dosing, LC/MS/MS; type: in vivo, Sprague-Dawley Rats
Experimental: These studies were conducted on rats and dogs as they are suitable animal models for zoledronic acid. This can be attributed to the fact that both animals have historically been used in the safety evaluation and PK screening studies and are recommended by appropriate regulatory agencies. […] Pure zoledronic acid and zoledronic acid complexes prepared by the methods in this invention were delivered to the rats and dogs through IV or oral routes. Additional tests included ID administration in rats and administration of enteric coated capsules in dogs. All compounds delivered were well tolerated by the animals with no adverse events or physical abnormalities noticed. […] USA. Surgical catheters (jugular vein and intraduodenum) were implanted to the animals prior to the study. […] Surgical catheters (jugular vein) were implanted prior to the study. […] Zoledronic acid and its complex formulations were administered through IV, oral and ID. […] The dose of each rat was calculated on a per rat basis (not on an average weight of all the rats in the lot). • ii. Oral gavage administration: solid suspensions were administered. The dose of each rat was calculated on a per rat basis (not on an average weight of all the rats in the lot). […] Duodenal cannula administration: solid suspensions were administered. The dose of each rat was calculated on a per rat basis (not on an average weight of all the rats in the lot). […] Group I (IV administration). Group members, designated IV doses are listed below IV comparator group, was conducted to calculate MAT (mean absorption time) and ka (absorption rate constant) for the oral groups. Group II (oral gavage): Group designations and oral doses are listed below: Group III (ID administration): Group designations and oral doses are listed below: Group IV (oral gavage): Group designations and oral doses are listed below: […] Samples were thawed on the day of analysis and the amount of zoledronic acid in the samples was quantified by analyzed by LC/MS/MS method.

[6] = molar concentration of the complex
[7] = ID (duodenal cannula) 5 mg/kg zoledronic acid equivalent, PEG 400, time 8 hour
[8] = ID (duodenal cannula) 5 mg/kg zoledronic acid equivalent, PEG 400, time 24 hour
[9] = PO gavage 5 mg/kg zoledronic acid equivalent, PEG 400, time 24 hour (Table 1)

With `O=P(O)(O)C(O)(Cn1ccnc1)P(=O)(O)O` [ZA monohydrate, Zoledronic acid monohydrate, reference compound] the solubility ([1]; molar concentration of the complex, read-out: Aqueous solubility, mMol/L (complex)) was 5.41 mmol/L and the solubility ([1]; read-out: Aqueous solubility, Conc.) was 1570 µg/mL.

In the case of `NCCCCC(N)C(=O)O.O.O=P(O)(O)C(O)(Cn1ccnc1)P(=O)(O)O` [ZA:DL-Lysine monohydrate], the “Aqueous solubility, Conc.” value [1] is reported as 13900 µg/mL and the “Aqueous solubility, mMol/L (complex)” value [1, 6] is reported as 31.86 mmol/L.

With `NCCCCC(N)C(=O)O.O.O.O=P(O)(O)C(O)(Cn1ccnc1)P(=O)(O)O` [ZA:L-Lysine dihydrate] the “Aqueous solubility, Conc.” value [1] was 8220 µg/mL and the “Aqueous solubility, mMol/L (complex)” value [1, 6] was 18.09 mmol/L.

In the case of `O=P(O)(O)C(O)(Cn1ccnc1)P(=O)(O)O` [Zoledronic acid, (1-hydroxy-2-imidazol-1-yl-1-phosphono-ethyl)phosphonic acid], the “solubility in 0.1 N HCl solution” value ([2]; 0.1 N HCl solution) is given as “sparingly soluble”, the “solubility in 0.1 N NaOH” value ([2]; 0.1 N NaOH) is given as “freely soluble” and the “solubility in various organic solvents” value ([2]; various organic solvents) is given as “practically insoluble”. For the same compound, the solubility in water ([2]; water) was “sparingly soluble”, the concentration at 0 h [3] was 0 ng/mL and the oral bioavailability ([4]; according to FDA Summary Basis of Approval) was “approximately 1%”. For the same compound, the “gastric and intestinal irritation” value ([4]; in vivo) was “severe gastric and intestinal irritations”.

In the case of Zoledronic, L-lysine, and water complex, the “Average plasma concentration of 3 Rats” value ([5]; ID (duodenal cannula) 5 mg/kg zoledronic acid equivalent, PEG 400, time 0.25 hour) is reported as 91.21 ng/mL, the “Average plasma concentration of 3 Rats” value ([5]; ID (duodenal cannula) 5 mg/kg zoledronic acid equivalent, PEG 400, time 1 hour) is reported as 26.53 ng/mL and the “Average plasma concentration of 3 Rats” value ([5]; ID (duodenal cannula) 5 mg/kg zoledronic acid equivalent, PEG 400, time 4 hour) is reported as 0.74 ng/mL. For the same compound, the “Average plasma concentration of 3 Rats” value [5, 7] was 0.00 ng/mL, the “Average plasma concentration of 3 Rats” value [5, 8] was 0.00 ng/mL and the “Average plasma concentration of 3 Rats” value ([5]; PO gavage 5 mg/kg zoledronic acid equivalent, PEG 400, time 0.25 hour (Table 1)) was 258.43 ng/mL. For the same compound, the “Average plasma concentration of 3 Rats” value ([5]; PO gavage 5 mg/kg zoledronic acid equivalent, PEG 400, time 0.5 hour (Table 1)) was 249.82 ng/mL, the “Average plasma concentration of 3 Rats” value ([5]; PO gavage 5 mg/kg zoledronic acid equivalent, PEG 400, time 1 hour (Table 1)) was 184.95 ng/mL and the “Average plasma concentration of 3 Rats” value ([5]; PO gavage 5 mg/kg zoledronic acid equivalent, PEG 400, time 4 hour (Table 1)) was 28.70 ng/mL. For the same compound, the “Average plasma concentration of 3 Rats” value ([5]; PO gavage 5 mg/kg zoledronic acid equivalent, PEG 400, time 8 hour (Table 1)) was 3.27 ng/mL and the “Average plasma concentration of 3 Rats” value [5, 9] was 0.00 ng/mL.

For “Zoledronic, Nicotinamide, and Water Complex”, the “Average plasma concentration of 3 Rats” value [5, 7] was 0.00 ng/mL, the “Average plasma concentration of 3 Rats” value [5, 8] was 0.00 ng/mL and the “Average plasma concentration of 3 Rats” value [5, 9] was 0.00 ng/mL.
